US6048523A, “Polyester cyclic compounds, their complexes and bonded bodies” (priority 1996, dated 2000)

Legend:
Yoshida sarcoma cells = experiment: suppression of Yoshida sarcoma cells in culture; type: cell-based; conditions: Rattus norvegicus, 72 h, 3 days, read-out: suppression rate to control
Method: A concentration of each compound or complex in the culture solution was adjusted to 1 mg/ml, 0.5 mg/ml, 0.25 mg/ml or 0.125 mg/ml. After the sarcoma cells were cultivated for 3 days, the number of the cells was measured.

macrophages = experiment: migration ability of macrophages (glass capillary method) after oral administration; type: in vivo, SD rat; conditions: oral 4 mg/kg/day, 4 weeks; migration area after 24 hours; ratio to control group
Method: After the administration, liquid paraffin was administered into peritoneal cavity of each rat. Three days later, peritoneal exudate cells were taken. Migration ability of macrophages produced from the peritoneal exudate cells was tested by glass capillary method. After 24 hours, a migration area of the macrophage was measured and a ratio of the measured migration area to that of control group was calculated.

[1] = test system: lactic acid bacteria in the bowel; experiment: number of lactic acid bacteria in the bowel of rats after oral administration; type: in vivo, rat; conditions: oral 4 mg/kg/day, 4 weeks; upper limit of the measurement 20
Excerpt: After the administration, content of the bowel of each rat was taken, diluted to a predetermined magnification and inoculated on an MRS agar medium to measure the number of lactic acid bacteria in the bowel.

lactic acid bacteria = experiment: multiplication of lactic acid bacteria in MRS medium; type: cell-based; conditions: 0.25 mg/10 ml MRS medium, 48 hours; read-out: Multiplication rates to control
Method: Pre-cultivated lactic acid bacteria were seeded into each MRS medium in a predetermined amount. After 48 hours, it was diluted to a predetermined magnification and inoculated on an MRS agar medium to measure the number of the bacteria.

Yoshida sarcomas = experiment: Yoshida sarcoma transplanted into rat, oral administration; type: in vivo, Donryu-rat; conditions: 8 mg/kg/day, 2 weeks
Method: Yoshida sarcomas were transplanted into a Donryu-rat of an age of 5 weeks. […] After the administration, sizes of the sarcomas were measured.

CC1OC(=O)C(C)OC1=O (stereo not drawn) [formula (4), lactide]
inhibition at 125 µg/mL (Yoshida sarcoma cells; 0.125 mg/ml): -18.2% | inhibition at 250 µg/mL (Yoshida sarcoma cells; 0.25 mg/ml): 0% | inhibition at 500 µg/mL (Yoshida sarcoma cells; 0.5 mg/ml): 0% | inhibition at 1000 µg/mL (Yoshida sarcoma cells; 1 mg/ml): 40.9% | Ratio of the migration area (macrophages): 1.13 | Ratio to control (number of lactic acid bacteria in the bowel) [1]: 3.8 | activity at 25 µg/mL (lactic acid bacteria): 116% | Size of sarcoma (Yoshida sarcomas; average values): 3216.6 mm^3 | Suppression rate (Yoshida sarcomas; versus control): 57.9%
